Results as given in paper PMC9259847, “Baicalin Induces a Potent Innate Immune Response to Inhibit Respiratory Syncytial Virus Replication via Regulating Viral Non-Structural 1 and Matrix RNA” (Frontiers in Immunology, 2022).

Biological target: T1, NS1 protein (RSV non-structural protein NS1) (Human respiratory syncytial virus A2, UniProt P0DOE9)
T1 construct: gene 1C; NS1 coupled to CM5 chip
Test: SPR (Biacore T200, NS1 coupled to CM5 chip)
Type: binding

T1 sequence (P0DOE9 whole entry): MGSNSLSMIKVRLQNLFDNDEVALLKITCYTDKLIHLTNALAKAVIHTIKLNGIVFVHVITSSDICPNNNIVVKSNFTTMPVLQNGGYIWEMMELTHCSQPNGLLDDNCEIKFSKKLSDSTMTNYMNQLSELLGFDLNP

`O=C(O)[C@H]1O[C@@H](Oc2cc3oc(-c4ccccc4)cc(=O)c3c(O)c2O)[C@H](O)[C@@H](O)[C@@H]1O` [baicalin] was tested, and the Kd was 11.2 µM.
